Test results reported in US12497394B2, “Fused-cyclic pyrazolone formamide compound and preparation method therefor, pharmaceutical composition and use thereof” (SHANGHAI INSTITUTE OF MATERIA MEDICA, CHINESE ACADEMY OF …, priority 2018, dated 2025).
Where “and” joins values, the source holds several entries; their conditions need not be identical. Identical values can stand only once.

Key:
[1] = target: receptor tyrosine kinase c-Met (Homo sapiens, UniProt P08581); test: In vitro c-Met kinase inhibitory activity; format: biochemical; settings: two values per compound; for inhibition at 0.01 µM / inhibition at 0.1 µM / inhibition at 0.001 µM: read-out: c-Met Inhibitory rate (%)
Source text: Experimental Example 3: Study of In Vitro c-Met Kinase Inhibitory Activity
Since the screening results of 369 kinase profiles of compound DC621044 has shown that the compound has a certain inhibitory activity on c-Met. We further screened some compounds for their inhibitory activity on c-Met kinase.

[2] = test system: BaF3/TEL-AXL cells; test: Proliferation of BaF3/TEL-AXL cells; format: cell-based; settings: two values per compound; for inhibition at 0.01 µM / inhibition at 0.1 µM / inhibition at 0.001 µM: BaF3/TEL-AXL, read-out: BaF3/TEL-AXL proliferation Inhibitory rate (%)
Source text: Experimental Example 4: Effect of the Compound on the Proliferation Effect of BaF3/TEL-AXL Cells
Based on the above-mentioned enzyme activity research results, we further explored the effect of the compound on cell proliferation mediated by receptor tyrosine kinase AXL.

Chain of receptor tyrosine kinase c-Met (P08581 25-1390): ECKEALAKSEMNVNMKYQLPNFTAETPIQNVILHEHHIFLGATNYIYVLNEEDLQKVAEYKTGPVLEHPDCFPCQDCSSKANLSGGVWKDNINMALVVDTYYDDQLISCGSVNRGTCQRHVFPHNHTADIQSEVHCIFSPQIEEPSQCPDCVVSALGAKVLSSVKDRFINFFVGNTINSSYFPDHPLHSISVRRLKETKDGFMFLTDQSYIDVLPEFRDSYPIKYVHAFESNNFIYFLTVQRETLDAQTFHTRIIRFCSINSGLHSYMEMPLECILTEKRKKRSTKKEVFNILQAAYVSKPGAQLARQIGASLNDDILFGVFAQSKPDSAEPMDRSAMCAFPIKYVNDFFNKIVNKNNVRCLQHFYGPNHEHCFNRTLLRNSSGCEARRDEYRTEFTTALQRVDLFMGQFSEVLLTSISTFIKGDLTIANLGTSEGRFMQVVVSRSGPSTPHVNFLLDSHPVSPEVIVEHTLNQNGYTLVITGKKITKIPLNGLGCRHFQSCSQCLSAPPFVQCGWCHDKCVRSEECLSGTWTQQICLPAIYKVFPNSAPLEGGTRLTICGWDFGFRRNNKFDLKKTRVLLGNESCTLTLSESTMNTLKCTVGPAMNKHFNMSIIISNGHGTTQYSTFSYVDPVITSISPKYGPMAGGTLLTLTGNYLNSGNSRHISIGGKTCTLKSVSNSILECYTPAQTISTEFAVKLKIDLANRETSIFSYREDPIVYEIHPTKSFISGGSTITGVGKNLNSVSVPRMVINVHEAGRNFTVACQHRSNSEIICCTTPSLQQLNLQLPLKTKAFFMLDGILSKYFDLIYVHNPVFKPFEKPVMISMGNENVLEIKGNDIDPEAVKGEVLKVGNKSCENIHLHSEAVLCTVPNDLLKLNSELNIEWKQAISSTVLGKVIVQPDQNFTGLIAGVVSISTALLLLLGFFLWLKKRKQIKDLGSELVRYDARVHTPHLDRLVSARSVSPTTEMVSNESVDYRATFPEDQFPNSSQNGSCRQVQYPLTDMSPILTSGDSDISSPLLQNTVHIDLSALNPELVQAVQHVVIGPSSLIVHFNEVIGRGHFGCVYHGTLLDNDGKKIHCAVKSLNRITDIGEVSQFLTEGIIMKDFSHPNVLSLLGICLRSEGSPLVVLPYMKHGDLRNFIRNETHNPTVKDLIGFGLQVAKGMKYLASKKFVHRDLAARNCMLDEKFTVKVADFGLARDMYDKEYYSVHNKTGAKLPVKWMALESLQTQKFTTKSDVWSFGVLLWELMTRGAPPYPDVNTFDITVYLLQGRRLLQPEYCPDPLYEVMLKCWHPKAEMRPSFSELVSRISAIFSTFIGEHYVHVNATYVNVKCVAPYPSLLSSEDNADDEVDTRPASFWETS

SMILES	c-Met Inhibitory rate (%) ([1]; 1 nM, 0.001 µM)	c-Met Inhibitory rate (%) ([1]; 10 nM, 0.01 µM)	inhibition at 0.01 µM ([1]; 10 nM)	c-Met Inhibitory rate (%) ([1]; 100 nM, 0.1 µM)	inhibition at 0.1 µM ([1]; 100 nM)	BaF3/TEL-AXL proliferation Inhibitory rate (%) ([2]; 10 nM, 0.01 µM)	BaF3/TEL-AXL proliferation Inhibitory rate (%) ([2]; 100 nM, 0.1 µM)	inhibition at 0.01 µM ([2]; 10 nM)	inhibition at 0.1 µM ([2]; 100 nM)	inhibition at 0.001 µM ([1]; 1 nM)	BaF3/TEL-AXL proliferation Inhibitory rate (%) ([2]; 1 nM, 0.001 µM)	inhibition at 0.001 µM ([2]; 1 nM)
COc1cc2nccc(Oc3ccc(NC(=O)c4c5n(n(-c6ccccc6)c4=O)CCCC5)cc3F)c2cc1OC [DC621001, N-(4-((6,7-dimethoxyquinoline-4-yl)oxy)-3-fluorophenyl)-2-oxo-1-phenyl-1,2,4,5,6,7-hexahydropyrazolo[1,5-a]pyridine-3-formamide]	51.7% and 72.4%	97.6%	84.7%	100%	92%	59.1%	71.3%	54.9%	82%	–	–	–
COc1cc2ncnc(Oc3ccc(NC(=O)c4c5n(n(-c6ccccc6)c4=O)CCCC5)cc3F)c2cc1OC [DC621011, N-(4-((6,7-dimethoxyquinazoline-4-yl)oxy)-3-fluorophenyl)-2-oxo-1-phenyl-1,2,4,5,6,7-hexahydropyrazolo[1,5-a]pyridine-3-formamide]	–	89.2%	74.4%	100%	86.6%	56.1%	83.9%	60.5%	84.8%	–	–	–
COc1cc2ncnc(Oc3ccc(NC(=O)c4c5n(n(-c6cc(F)ccc6F)c4=O)CCCC5)cc3)c2cc1OC [DC621022, 1-(2,5-difluorophenyl)-N-(4-((6,7-dimethoxyquinazoline-4-yl)oxy)phenyl)-2-oxo-1,2,4,5,6,7-hexahydropyrazolo[1,5-a]pyridine-3-formamide]	51.1%	57.0%	41.7%	96.5%	81.9%	58.0%	80.9%	71.8%	83.2%	35.4%	48.3%	66.3%
COc1cc2ncnc(Oc3ccc(NC(=O)c4c5n(n(-c6cc(F)ccc6F)c4=O)CCCC5)cc3F)c2cc1OC [DC621023, 1-(2,5-difluorophenyl)-N-(4-((6,7-dimethoxyquinazoline-4-yl)oxy)-3-fluorophenyl)-2-oxo-1,2,4,5,6,7-hexahydropyrazolo[1,5-a]pyridine-3-formamide]	60.9%	92.3%	80.9%	100%	99.2%	67.6%	65.0%	66.5%	76.8%	58.9%	62.2% and 41.4%	–
COc1cc2ncnc(Oc3ccc(NC(=O)c4c5n(n(-c6ccccc6F)c4=O)CCCC5)cc3F)c2cc1OC [DC621034, N-(4-((6,7-dimethoxyquinazoline-4-yl)oxy)-3-fluorophenyl)-1-(2-fluorophenyl)-2-oxo-1,2,4,5,6,7-hexahydropyrazolo[1,5-a]pyridine-3-formamide]	34.8% and 63.9%	66.5%	48.3%	97.0%	97.5%	–	–	–	–	–	–	–
O=C(Nc1ccc(Oc2ncnc3[nH]cc(-c4ccccc4)c23)c(F)c1)c1c2n(n(-c3ccccc3)c1=O)CCCC2 [DC621052, N-(3-fluoro-4-((5-phenyl-7H-pyrrolo[2,3-d]pyrimidin-4-yl)oxy)phenyl)-2-oxo-1-phenyl-1,2,4,5,6,7-hexahydropyrazolo[1,5-a]pyridine-3-formamide]	43.0%	55.1% and 85.0%	–	94.1%	84.5%	–	–	–	–	32.7%	–	–
COc1cc2ncnc(Oc3ccc(NC(=O)c4c5n(n(-c6cc(F)ccc6F)c4=O)CCCC5)c(F)c3)c2cc1OC [DC621053, 1-(2,5-difluorophenyl)-N-(4-((6,7-dimethoxyquinazoline-4-yl)oxy)-2-fluorophenyl)-2-oxo-1,2,4,5,6,7-hexahydropyrazolo[1,5-a]pyridine-3-formamide]	–	68.5%	50.9%	98.7%	92.8%	71.6%	84.2%	67.5%	83.8%	–	56.7%	65.3%
O=C(Nc1ccc(Oc2ncnc3[nH]cc(-c4ccccc4)c23)c(F)c1)c1c2n(n(-c3cc(F)ccc3F)c1=O)CCCC2 [DC621055, 1-(2,5-difluorophenyl)-N-(3-fluoro-4-((5-phenyl-7H-pyrrolo[2,3-d]pyrimidin-4-yl)oxy)phenyl)-2-oxo-1,2,4,5,6,7-hexahydropyrazolo[1,5-a]pyridine-3-formamide]	30.8% and 53.9%	74.2%	68.2%	100%	96%	–	–	–	–	–	–	–
COc1cc2ncnc(Oc3ccc(NC(=O)c4c5n(n(-c6ccccc6F)c4=O)CCCC5)c(F)c3)c2cc1OC [DC621056, N-(4-((6,7-dimethoxyquinazoline-4-yl)oxy)-2-fluorophenyl)-1-(2-fluorophenyl)-2-oxo-1,2,4,5,6,7-hexahydropyrazolo[1,5-a]pyridine-3-formamide]	–	72.8% and 49.8%	–	94.1%	92%	74.1%	84.9%	70%	86.6%	–	58.8%	45.3%
O=C(Nc1ccc(Oc2ncnc3[nH]cc(-c4ccccc4)c23)c(F)c1)c1c2n(n(-c3ccccc3F)c1=O)CCCC2 [DC621058, N-(3-fluoro-4-((5-phenyl-7H-pyrrolo[2,3-d]pyrimidin-4-yl)oxy)phenyl)-1-(2-fluorophenyl)-2-oxo-1,2,4,5,6,7-hexahydropyrazolo[1,5-a]pyridine-3-formamide]	–	45.1%	54.6%	83.6%	89.2%	–	–	–	–	–	–	–
COc1cc2ncnc(Oc3ccc(NC(=O)c4c5n(n(-c6ccc(F)cc6)c4=O)CCCC5)c(F)c3)c2cc1OC [DC621059, N-(4-((6,7-dimethoxyquinazoline-4-yl)oxy)-2-fluorophenyl)-1-(4-fluorophenyl)-2-oxo-1,2,4,5,6,7-hexahydropyrazolo[1,5-a]pyridine-3-formamide]	–	–	–	–	–	82.7%	84.2%	71.4%	83.7%	–	78.3%	68.4%
COc1cc2ncnc(Oc3ccc(NC(=O)c4c5n(n(-c6ccc(F)cc6)c4=O)CCCC5)cc3C(F)(F)F)c2cc1OC [DC621101, N-(4-((6,7-dimethoxyquinazoline-4-yl)oxy)-3-trifluoromethylphenyl)-1-(4-fluorophenyl)-2-oxo-1,2,4,5,6,7-hexahydropyrazolo[1,5-a]pyridine-3-formamide]	19.6%	60.9%	75%	91.0%	96.5%	–	–	–	–	27.2%	–	–
COCCOc1cc2ncnc(Oc3ccc(NC(=O)c4c5n(n(-c6ccc(F)cc6)c4=O)CCCC5)cc3C(F)(F)F)c2cc1OCCOC [DC621102, N-(4-((6,7-bis(2-methoxyethoxy)quinazolin-4-yl)oxy)-3-trifluoromethylphenyl)-1-(4-fluorophenyl)-2-oxo-1,2,4,5,6,7-hexahydropyrazolo[1,5-a]pyridine-3-formamide]	17.2%	77.2% and 53.4%	–	93.9%	99.1%	–	–	–	–	25.6%	–	–
